Experiment [1] deals with Venturia inaequalis. Briefly: Plant-pathogen bioassay on apple seedlings under semi-controlled conditions. In kind it is in vivo. Conditions: apple cv. Jonagold seedlings, n = 6, Table 7.
Experiment [2] concerns Plasmopara viticola. The experiment is described as follows: In vitro bioassay in 96-well plates, minimal inhibitory concentration (MIC100). In kind it is cell-based. The following applies: for MIC: Plasmopara viticola, read-out: Minimal inhibitory concentration (MIC100) against P. viticola.
The next experiment concerns Phytophthora infestans. Briefly: microbe, parasite or virus in culture. Conditions: complete inhibition of germination, assessed after one day, Table 2 values are means of N independent experiments; for Minimal inhibitory concentration (MIC100) against P. infestans: in vitro; for MIC: Phytophthora infestans, 24 h, read-out: Minimal inhibitory concentration (MIC100) against P. infestans, in vitro. In kind it is cell-based.

Experiment [3] relates to Plasmopara viticola. The experiment is described as follows: Plant-pathogen bioassay on grapevine seedlings under semi-controlled conditions. In kind it is in vivo. The following applies: grapevine cv. Chasselas seedlings, n = 6, Table 5.
The subject of experiment [4] is Venturia inaequalis. The experiment is described as follows: In vitro bioassay in 96-well plates, minimal inhibitory concentration (MIC100). Conditions: for MIC: Venturia inaequalis, 48 h, read-out: Minimal inhibitory concentration (MIC100) against V. inaequalis. In kind it is cell-based.
The mark [5] stands for this setting: in vitro, complete inhibition of zoospore activity, assessed after 2-3 h, Table 2 values are means of N independent experiments.
Setting [6] is: in vitro, complete inhibition of germination, assessed after two days, Table 2 values are means of N independent experiments.

The values that follow come from US10869474B2, “Fungicidal compositions” (UNIVERSITÄT BASEL, priority 2016, dated 2020).

Converted amounts (≈) assume the structure as drawn. Like-named read-outs stand apart in the source and are kept apart here.

Turning to `COc1cc(/C=C/COC(=O)c2ccccc2)ccc1O` [CB, coniferyl benzoate], the “Efficacy Mean ± SD” value in the experiment on Venturia inaequalis [1] (CB 0.1 mg ml^−1) stood at 4 ± 53%; in the experiment with Venturia inaequalis [1] (CB 1 mg ml^−1) it was 69 ± 12%; with Venturia inaequalis [1] (CB 1 mg ml^−1, listed as coniferyl benzoate), 70%. The MIC with Plasmopara viticola [2] (setting [5]) was in the range of 8 to 32 µg/mL (≈ 28.1 to 113 µM). Also, the “Minimal inhibitory concentration (MIC100) against P. viticola” value in the experiment on Plasmopara viticola [2] (setting [5]) amounted to 12 µg/mL (≈ 42.2 µM). Moreover, in the experiment with Phytophthora infestans, the “Minimal inhibitory concentration (MIC100) against P. infestans” value was found to be 21 µg/mL (≈ 73.9 µM). The “Efficacy against P. viticola, mean ± SD” value in the experiment on Plasmopara viticola [3] (pure compound 0.25 mg ml^−1) amounted to 85 ± 14%; with Plasmopara viticola [3] (pure compound 0.5 mg ml^−1) it was 77 ± 50%; in the experiment on Plasmopara viticola [3] (pure compound 1 mg ml^−1) it was 99 ± 1%. The “Minimal inhibitory concentration (MIC100) against V. inaequalis” value in the experiment on Venturia inaequalis [4] (setting [6]) is 35 µg/mL (≈ 123 µM).

On to `O=C(/C=C/c1ccccc1)OCc1ccccc1` [BC, benzyl cinnamate], for which the MIC in the experiment with Plasmopara viticola [2] is 8 µg/mL (≈ 33.6 µM); in the experiment with Phytophthora infestans it was 500 µg/mL (≈ 2100 µM); in the experiment on Venturia inaequalis [4], greater than 500 µg/mL.

With `O=C(/C=C/c1ccccc1)OC/C=C/c1ccc(O)cc1` [CC, p-coumaryl cinnamate], the “Minimal inhibitory concentration (MIC100) against P. viticola” value in the experiment on Plasmopara viticola [2] (setting [5]) stood at 38 µg/mL (≈ 136 µM). The MIC in the experiment with Phytophthora infestans and with Venturia inaequalis [4] (setting [6]) was 16 to 64 µg/mL (≈ 57.1 to 228 µM) in each case. In addition, the “Minimal inhibitory concentration (MIC100) against P. infestans” value in the experiment on Phytophthora infestans is 25 µg/mL (≈ 89.2 µM). Moreover, the “Efficacy against P. viticola, mean ± SD” value was 80 ± 16% with Plasmopara viticola [3] (pure compound 0.25 mg ml^−1), 95 ± 6% with Plasmopara viticola [3] (pure compound 0.5 mg ml^−1) and 98 ± 1% in the experiment with Plasmopara viticola [3] (pure compound 1 mg ml^−1). The “Minimal inhibitory concentration (MIC100) against V. inaequalis” value in the experiment with Venturia inaequalis [4] (setting [6]) turned out to be 32 µg/mL (≈ 114 µM).
